Laboratory results from ChEMBL document CHEMBL1133860, “Synthesis and biological evaluation of a series of novel N- or O-fluoroalkyl derivatives of tropane: potential positron emission tomography (PET) imaging agents for the dopamine transporter” (Bioorg Med Chem Lett, 2001).

Key:
[1] = tested on: Monoamine transporters; serotonin & dopamine; assay: Selectivity for DAT determined as ratio of binding affinity for SERT to that for DAT; assay type: protein assay
[2] = target: Sodium-dependent dopamine transporter (Rattus norvegicus, UniProt P23977); assay: Ability to displace [3H]- beta-CIT from Dopamine transporter in rat striatal homogenate
Sodium-dependent dopamine transporter, sequence (P23977 whole entry): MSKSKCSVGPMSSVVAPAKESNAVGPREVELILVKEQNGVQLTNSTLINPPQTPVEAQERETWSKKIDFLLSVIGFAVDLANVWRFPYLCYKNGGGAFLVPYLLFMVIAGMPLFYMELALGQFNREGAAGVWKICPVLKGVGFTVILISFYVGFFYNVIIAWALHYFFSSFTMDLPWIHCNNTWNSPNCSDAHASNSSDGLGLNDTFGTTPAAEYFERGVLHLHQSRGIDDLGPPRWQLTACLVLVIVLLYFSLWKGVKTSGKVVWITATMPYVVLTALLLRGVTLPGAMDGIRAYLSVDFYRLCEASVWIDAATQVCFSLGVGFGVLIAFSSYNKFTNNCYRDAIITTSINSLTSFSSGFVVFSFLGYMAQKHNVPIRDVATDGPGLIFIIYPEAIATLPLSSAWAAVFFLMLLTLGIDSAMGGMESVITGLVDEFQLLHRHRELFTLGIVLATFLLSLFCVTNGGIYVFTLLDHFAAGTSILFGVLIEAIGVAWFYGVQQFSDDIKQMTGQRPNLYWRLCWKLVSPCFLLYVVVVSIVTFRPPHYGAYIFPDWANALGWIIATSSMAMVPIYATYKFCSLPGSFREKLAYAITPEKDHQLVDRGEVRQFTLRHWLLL

[3] = target: Norepinephrine transporter (Rattus norvegicus, UniProt Q9WTR4); assay: Ability to displace [3H]- nisoxetin from Norepinephrine transporter in rat cerebral cortical homogenate
Norepinephrine transporter, sequence (Q9WTR4 whole entry): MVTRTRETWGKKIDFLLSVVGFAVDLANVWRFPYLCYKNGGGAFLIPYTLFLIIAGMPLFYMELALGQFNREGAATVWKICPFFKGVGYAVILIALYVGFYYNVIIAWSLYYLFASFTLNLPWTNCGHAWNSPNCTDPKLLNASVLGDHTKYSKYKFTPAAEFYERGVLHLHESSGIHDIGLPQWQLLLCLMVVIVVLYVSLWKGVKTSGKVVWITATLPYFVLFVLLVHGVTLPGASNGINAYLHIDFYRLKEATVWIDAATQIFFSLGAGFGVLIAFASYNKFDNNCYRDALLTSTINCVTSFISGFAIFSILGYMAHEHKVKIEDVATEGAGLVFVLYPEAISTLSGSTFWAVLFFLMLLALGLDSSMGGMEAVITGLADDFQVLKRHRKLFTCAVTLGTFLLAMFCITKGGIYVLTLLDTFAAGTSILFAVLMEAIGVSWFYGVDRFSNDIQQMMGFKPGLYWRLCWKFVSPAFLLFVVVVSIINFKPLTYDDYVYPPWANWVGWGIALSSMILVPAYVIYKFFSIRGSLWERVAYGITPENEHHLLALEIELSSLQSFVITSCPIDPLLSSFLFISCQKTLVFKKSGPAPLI

[4] = tested on: Monoamine transporters; Norepinephrine & dopamine; assay: Selectivity for DAT determined as ratio of binding affinity for NET to that for DAT; assay type: protein assay
[5] = target: Sodium-dependent serotonin transporter (Rattus norvegicus, UniProt P31652); assay: Ability to displace [3H]- paroxetine from Serotonin transporter in rat cerebral cortical homogenate
Sodium-dependent serotonin transporter, sequence (P31652 whole entry): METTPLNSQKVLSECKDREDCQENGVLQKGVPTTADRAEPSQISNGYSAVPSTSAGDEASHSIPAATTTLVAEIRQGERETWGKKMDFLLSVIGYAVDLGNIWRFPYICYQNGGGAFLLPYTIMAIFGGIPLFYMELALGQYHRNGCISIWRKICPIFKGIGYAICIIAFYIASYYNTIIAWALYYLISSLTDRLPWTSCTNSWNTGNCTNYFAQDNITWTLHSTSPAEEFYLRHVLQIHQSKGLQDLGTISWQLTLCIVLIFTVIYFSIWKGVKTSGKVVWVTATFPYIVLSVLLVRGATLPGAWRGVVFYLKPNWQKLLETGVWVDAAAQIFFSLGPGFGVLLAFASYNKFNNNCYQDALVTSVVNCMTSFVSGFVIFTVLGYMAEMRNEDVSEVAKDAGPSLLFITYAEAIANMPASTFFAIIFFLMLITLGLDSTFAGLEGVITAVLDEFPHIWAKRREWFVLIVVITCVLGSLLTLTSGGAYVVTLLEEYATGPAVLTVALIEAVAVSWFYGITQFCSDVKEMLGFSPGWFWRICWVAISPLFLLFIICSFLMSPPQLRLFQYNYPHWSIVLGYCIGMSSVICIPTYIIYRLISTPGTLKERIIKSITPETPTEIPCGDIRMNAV

COC(=O)C1C(c2ccc(Br)cc2)CC2CCC1N2CCCF (configuration not stated)
Selectivity ratio [1]: 10.9 | Ki [2]: 3.33 nM | Ki [3]: 196 nM | Selectivity ratio [4]: 58.9 | Ki [5]: 36.4 nM

COC(=O)[C@@H]1C2CC[C@H](C[C@@H]1c1ccc(I)cc1)N2C
Selectivity ratio [1]: 0.4 | Ki [2]: 1.33 nM | Selectivity ratio [4]: 2.1

CN1C2CCC1C(C(=O)OCCF)C(c1ccc(I)cc1)C2 (configuration not stated)
Selectivity ratio [1]: 1.1 | Ki [2]: 0.93 nM | Ki [3]: 173 nM | Selectivity ratio [4]: 112 | Ki [5]: 1.65 nM

COC(=O)C1C2CCC(CC1c1ccc(I)cc1)N2 (configuration not stated)
Selectivity ratio [1]: 0.1 | Ki [2]: 0.64 nM | Ki [3]: 1.85 nM | Selectivity ratio [4]: 2.9 | Ki [5]: 0.06 nM

Cc1ccc(C2CC3CCC(C2C(=O)OCCCF)N3C)cc1 (configuration not stated)
Selectivity ratio [1]: 45.3 | Ki [2]: 7.17 nM | Ki [3]: 260 nM | Selectivity ratio [4]: 36.3 | Ki [5]: 325 nM

CN1C2CCC1C(C(=O)OCCCF)C(c1ccc(I)cc1)C2 (configuration not stated)
Selectivity ratio [1]: 1.1 | Ki [2]: 1.54 nM | Ki [3]: 173 nM | Selectivity ratio [4]: 112 | Ki [5]: 1.65 nM

COC(=O)C1C(c2ccc(I)cc2)CC2CCC1N2CCCF (configuration not stated)
Selectivity ratio [1]: 0.2 | Ki [2]: 8.29 nM | Selectivity ratio [4]: 7.6 | Ki [5]: 1.68 nM

COC(=O)C1C(c2ccc(C)cc2)CC2CCC1N2CCCF (configuration not stated)
Selectivity ratio [1]: 34.9 | Ki [2]: 37.6 nM | Ki [3]: 1210 nM | Selectivity ratio [4]: 32.1 | Ki [5]: 1310 nM

COC(=O)C1C(c2ccc(C)cc2)CC2CCC1N2CCF (configuration not stated)
Selectivity ratio [1]: 11.7 | Ki [2]: 32.1 nM | Ki [3]: 268 nM | Selectivity ratio [4]: 8.4 | Ki [5]: 375 nM

O=C(OCCF)C1C(c2ccc(I)cc2)CC2CCC1N2CCCF (configuration not stated)
Selectivity ratio [1]: 1.5 | Ki [2]: 8.71 nM | Ki [3]: 723 nM | Selectivity ratio [4]: 83 | Ki [5]: 13.3 nM
